Columns and labels:
OsSNAT3 (OsSNAT3-His6) = target: T1, OsSNAT3 (OsSNAT3-His6) (Oryza sativa, UniProt B7F8K4); assay: inhibition of serotonin N-acetylation, HPLC; assay type: biochemical; conditions: 0.5 mM serotonin and 0.5 mM amine, pH 8.8, 55 °C; possible alternative substrate; tag form not stated for this figure
T1 construct: cDNA-derived N-terminus MGAGEG, C-terminus QAATKK
T1 sequence (B7F8K4 1-179): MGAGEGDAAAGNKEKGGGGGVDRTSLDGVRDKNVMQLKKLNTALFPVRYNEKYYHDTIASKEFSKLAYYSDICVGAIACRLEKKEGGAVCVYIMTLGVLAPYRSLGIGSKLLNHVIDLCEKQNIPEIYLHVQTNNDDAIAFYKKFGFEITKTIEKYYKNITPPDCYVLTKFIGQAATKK

[1] = substrate: NCCc1c[nH]c2ccc(O)cc12; assay: HPLC detection of N-acetylserotonin, Lineweaver-Burk; assay type: biochemical, Oryza sativa; conditions: 0.5 mM acetyl-CoA, 100 mM potassium phosphate pH 8.8, 45 °C
[2] = substrate: COc1ccc2[nH]cc(CCN)c2c1; assay: HPLC detection of melatonin, Lineweaver-Burk; assay type: biochemical, Oryza sativa; conditions: 0.5 mM acetyl-CoA, 100 mM potassium phosphate pH 8.8, 45 °C

With NC[C@H](O)c1ccc(O)cc1 [octopamine] the “SNAT activity with 0.5 mM amine” value (OsSNAT3 (OsSNAT3-His6)) was “OsSNAT3 activity was strongly inhibited by spermidine and octopamine (Figure 3C)”.

For NCCCCN [putrescine], the “SNAT activity with 0.5 mM amine” value (OsSNAT3 (OsSNAT3-His6)) was “significantly inhibited by putrescine and dopamine”.

In the case of NCCCCNCCCN [spermidine], the “SNAT activity with 0.5 mM amine” value (OsSNAT3 (OsSNAT3-His6)) is reported as “OsSNAT3 activity was strongly inhibited by spermidine and octopamine (Figure 3C)”.

In the case of NCCc1ccc(O)c(O)c1 [dopamine], the “SNAT activity with 0.5 mM amine” value (OsSNAT3 (OsSNAT3-His6)) is reported as “significantly inhibited by putrescine and dopamine”.

B1: OsSNAT3 (OsSNAT3-His6) (Oryza sativa Japonica Group) (protein)
chain: MGAGEGDAAAGNKEKGGGGGVDRTSLDGVRDKNVMQLKKLNTALFPVRYNEKYYHDTIASKEFSKLAYYSDICVGAIACRLEKKEGGAVCVYIMTLGVLAPYRSLGIGSKLLNHVIDLCEKQNIPEIYLHVQTNNDDAIAFYKKFGFEITKTIEKYYKNITPPDCYVLTKFIGQAATKK
notes: cDNA-derived N-terminus MGAGEG, C-terminus QAATKK
Work on B1 yielded a Km [1] of 1152 µM and a Km [2] of 1587 µM.
